# From patent US11129801B2 (SigmaThera SAS, priority 2016, dated 2021)
# Legend:
# sigma-1R = details: cited from earlier work
# [1] = tested on: sigma-1 receptor / BiP complex; experiment: Dissociation of BiP from sigma-1 receptor in CHO cells; assay type: cell-based; details: 10 μM NE100 with 10 μM igmesine
# Experimental: CHO cells were grown in a 6-well plates and treated with the compounds in culture medium at 37° C. for 30 min at 1 μM and 10 μM final concentration. The reaction was stopped by medium removal and adding 3 mL PBS at 37° C. CHO cells were harvested and suspended in 50 mM HEPES (pH7.4) followed by cross-linking with 50 μg/ml of dithio (bis) succinimidyl propionate (Thermo Fisher Scientific, Waltham, Mass.) for 30 min at 4° C. The reaction was stopped by adding Tris-HCl (pH 8.8, final 50 mM). Fifteen minutes after incubation on ice, cells were lysed with RIPA buffer [50 mM Tris (pH7.4), 150 mM NaCl, 1% Triton X-100, 0.3% sodium deoxycholate, 0.1% SDS, protease inhibitor cocktail (Roche Complete)]. After centrifugation at 12,000 g, 1 min, the supernatant was incubated overnight at 4° C. with Sig-1R antibody (Abcam). The cell lysate was incubated with Sepharose protein-A (Invitrogen) for 90 min. After centrifugation at 12,000 g, 1 min, the supernatant was discarded and the pellet was washed in 0.5 mL RIPA buffer. After a second centrifugation at 12,000 g, 20 min, the supernatant was discarded and the pellet was washed in 0.5 mL 2× Sample buffer/bMCE buffer. Following a third centrifugation at 12,000 g, 1 min, the supernatant was analysed by ELISA assay, according to the manufacturer's protocol (USCNK #SEC343Mu).
# [2] = tested on: Aβ25-35 mouse model of Alzheimer's disease; experiment: Spontaneous alternation in the Y-maze, Aβ25-35 mouse model; assay type: in vivo; details: for protection from injury produced by Aβ25-35 treatment, single agent: Experiment 4, i.p. day 1 to day 6, dose dependent; for highest sub-active dose, spontaneous alternation: Experiment 3, i.p.
# Experimental: (§1) The compound efficacy was evaluated 7 days after the peptide administration on the attenuation of the Aβ25-35-induced learning deficits (spatial working memory using the spontaneous alternation in the Y-maze test, and contextual long-term memory using the passive avoidance test).
# (§2) The mice were tested 7 days post injection or at the indicated time points.
# (§3) In Experiment 2, twelve mice per experimental group were administered Sc.Aβ or Aβ25-35-amyloid peptide on day 0 by i.c.v. injection. […] Animals were tested at day 7 and later.
# (§4) The synergy/additivity/antagonism was evaluated by calculating the combination index. […] Animals were then tested at day 7 and later.
# (§5) Animals were tested at day 7 and later.
# (§6) For each of Experiments 1-4, on day 7, all animals were tested for the spontaneous alternation performance in the Y-maze test, an index of spatial working memory. On day 8 and 9, the contextual long-term memory of the animals was assessed using the step-through type passive avoidance procedure. On day 9, immediately after the retention session, animals were sacrificed by decapitation and the hippocampus and cortex dissected out. Lipid peroxidation was analyzed in the hippocampus, whereas neuroinflammation, apoptosis, amyloid burden and hyperphosphorylation of tau protein were analyzed in cortex.
# The homogeneous oligomeric preparation of Aβ25-35 peptide was performed according to the AMYLGEN's own procedure. Each mouse was anesthetized with isoflurane 2.5% and injected i.c.v. with Aβ25-35 peptide (9 nmol/mouse) or Sc.Aβ peptide (9 nmol/mouse), in a final volume of 3 μl/mouse, according to the previously described method (Maurice T, et al. (1996). Brain Res. 706(2): 181-193, Maurice T, et al. (1998) Neuroscience 83(2): 413-428, Meunier J, et al. (2006) British J. Pharmacol. 149(8): 998-1012, Villard V, et al. (2009) Neuropsychopharmacology 34(6): 1552-1566, Villard V, et al. (2011) J. Pharmacol. Sci. 115(3): 279-292).
# Animals: Male Swiss mice, 6 weeks old and weighing 30-35 g, from JANVIER (Saint Berthevin, France), were kept for housing and experiments took place within the animal facility building of the University of Montpellier 2 (CECEMA, Office of Veterinary Services agreement #B-34-172-23). Animals were housed in groups with access to food and water ad libitum, except during behavioral experiments. They were kept in a temperature and humidity controlled animal facility on a 12 h/12 h light/dark cycle (lights off at 07:00 pm). Mice were numbered by marking their tail using permanent markers. All animal procedures were conducted in strict adherence to the European Union directive of Sep. 22, 2010 (2010/63/UE). Diagnostic summary reports of JANVIER were annexed to the study report.
# Spontaneous alternation performance: Immediate working memory performance was assessed by recording spontaneous alternation behavior during a single session in a Y-maze as described previously (Itoh J, et al. (1993) Eur J Pharmacol 236(3): 341-345; Hiramatsu M and Inoue K (1999) Br J Pharmacol 127(3): 655-660). The Y-maze is made of grey polyvinylchloride. Each arm of the Y-maze was 40 cm long, 3 cm wide, and 13 cm high at the bottom, 10 cm wide at the top, and converging at an equal angle. Each mouse was placed at the end of one arm and allowed to move freely through the maze during an 8 min session. The series of arm entries, including possible returns into the same arm, was checked visually. An alternation was defined as entries into all three arms on consecutive occasions. The number of maximum alternations is therefore the total number of arm entries minus two and the percentage of alternation was calculated as (actual alternations/maximum alternations)×100. Parameters included the percentage of alternation (memory index) and total number of arm entries (exploration index).
# [3] = tested on: Aβ25-35 mouse model of Alzheimer's disease; experiment: Aβ25-35 mouse model, overall neuroprotection (summary statements); assay type: in vivo; details: versus usual doses; ibuprofen, atorvastatin after allometric scaling mouse to human
# Experimental: as §1, §2, §3, §4, §5, §6
Structure (SMILES),"protection from injury produced by Aβ25-35 treatment, single agent [2]",lowering of the partner drug's dose when associated with igmesine [3] [fold],also measured
"CCC(C/C=C/c1ccccc1)(c1ccccc1)N(C)CC1CC1 (stereo not shown) [JO-1783, reference compound]",,,potency relative to igmesine at the binding site (sigma-1R): ten times less potent
"CCCN(CCC)CCc1ccc(OC)c(OCCc2ccccc2)c1 [NE100, reference compound]",,,antagonism of igmesine-induced BiP dissociation [1]: prevented
"CC(C)c1c(C(=O)Nc2ccccc2)c(-c2ccccc2)c(-c2ccc(F)cc2)n1CC[C@@H](O)C[C@@H](O)CC(=O)O [atorvastatin, reference compound]",able to protect,10,
"COc1cc2c(cc1OC)C(=O)C(CC1CCN(Cc3ccccc3)CC1)C2 (stereo not shown) [donepezil, reference compound]",,4,"highest sub-active dose, spontaneous alternation [2]: 0.25 mg/kg"
"CC(C)Cc1ccc(C(C)C(=O)O)cc1 (stereo not shown) [ibuprofen, reference compound]",able to protect,3,
CC12CC3CC(C)(C1)CC(N)(C3)C2 [memantine],,,"highest sub-active dose, spontaneous alternation [2]: 0.5 mg/kg"
C#CCN(C)[C@H](C)Cc1ccccc1 [selegiline],able to protect,,
